Experimental findings from patent US12404244B2, “Pan-KIT kinase inhibitor having quinoline structure and application thereof” (Tarapeutics Science Inc., priority 2018, dated 2025) are described below.

Experiment [1] concerns TEL-KIT-BaF3 (stably expressing KIT wild-type kinase). In words: Proliferation of TEL-KIT-BaF3 cells (CCK-8). Type of experiment: cell-based, mouse. Particulars: Mus musculus, read-out: GI50 TEL-KIT-BaF3. The source says:
(§1) Compounds as provided herein were further evaluated for their inhibitory effects on proliferation of cancer cells by testing their effects on growth of cancer cells. In this example the following cells were used: primary mouse B cells BaF3 (purchased from ATCC), GIST-T1 cells of the human gastrointestinal stromal tumor cell line (expressing wild-type KIT gene) (purchased from Cosmo Bio Co., Ltd. (Japan)). The present lab further constructed and used the following: mouse Tel-Kit-BaF3 (stably expressing KIT wild-type kinase), mouse Tel-Kit/T670I-BaF3 (stably expressing KIT T670I mutant kinase), mouse Tel-Kit/V559A-BaF3 (stably expressing KIT V559A mutant kinase), mouse Tel-Kit/V559D-BaF3 (stably expressing KIT V559D mutant kinase), mouse Tel-Kit/V559G-BaF3 (stably expressing KIT V559G mutant kinase), mouse Tel-Kit/V560D-BaF3 (stably expressing KIT V560D mutant kinase), mouse Tel-Kit/L576P-BaF3 (stably expressing KIT L576P mutant kinase), mouse Tel-Kit/V654A-BaF3 (stably expressing KIT V654A mutant kinase), mouse Tel-Kit/V654A/V559D-BaF3 (stably expressing KIT V654A V559D mutant kinase), mouse Tel-Kit/T670E-BaF3 (stably expressing KIT T670E mutant kinase), mouse Tel-Kit/T670I/V559D-BaF3 (stably expressing KIT T670I V559D mutant kinase), mouse Tel-Kit/S709F-BaF3 (stably expressing KIT S709F mutant kinase), mouse Tel-Kit/D816E-BaF3 (stably expressing KIT D816E mutant kinase), mouse Tel-Kit/D816H-BaF3 (stably expressing KIT D816H mutant kinase), mouse Tel-Kit/D820E-BaF3 (stably expressing KIT D820E mutant kinase), mouse Tel-Kit/D820G-BaF3 (stably expressing KIT D820G mutant kinase), mouse Tel-Kit/D820Y-BaF3 (stably expressing KIT D820Y mutant kinase), mouse Tel-Kit/N822K-BaF3 (stably expressing KIT N822K mutant kinase), mouse Tel-Kit/Y823D-BaF3 (stably expressing KIT Y823D mutant kinase), mouse Tel-Kit/A829P-BaF3 (stably expressing KIT A829P mutant kinase), GIST-T1-T670I cells of the human gastrointestinal stromal tumor cell line (expressing KIT-T670I mutant gene). The above cell lines were constructed by: amplifying respectively the sequences of human KIT and various mutant kinase regions of KIT via PCR, inserting the fragments respectively into MSCV-Puro vectors having a N-terminal TEL fragment and/or a NPM fragment and/or a TPR fragment (purchased from Clontech), transfecting mouse BaF3 cells with the vectors by means of retrovirus to obtain stably transfected cells, removing the growth factor IL-3, and thereby eventually obtaining cell lines that depend on the transferred protein KIT or various mutants of KIT. The GIST-T1-T670I (expressing C-KIT-T670I mutant gene) cell line was constructed by our laboratory as follows: designing sgRNA that targeted a region around T670 of the KIT gene with CRISPR Design Tool (website: crispr.mit.edu, Zhang Feng Lab), cloning it into pSpCas9(BB)-2A-Puro vector; co-transfecting cells with the resultant vector and a single-stranded oligonucleotide having T670I site mutation that is near to T670, subjecting the resultant to antibiotics screening, followed by dilution, and monocellular culture in a 96-well plate; validating the site T670 of the cells by sequence detection via Sanger sequencing.
(§2) The cells after incubation were detected using CCK-8 (purchased from MedChem Express, Shanghai, China) cell viability assay kit (CCK-8 may be reduced by dehydrogenase in living cells to a highly water-soluble yellow formazan product, and the amount of the resultant formazan is proportional to the number of living cells), the number of living cells were quantified with a microplate reader, and GI50 of the compounds and the control compounds were calculated (the results shown in Table 2 and Table 3).

In experiment [2] the test system is TEL-KIT/V559D-BaF3. The experiment can be described thus: Proliferation of TEL-KIT/V559D-BaF3 cells (CCK-8). Particulars: Mus musculus, read-out: GI50 TEL-KIT/V559D-BaF3. Type of experiment: cell-based.
From the text: as §1, with “The GIST-T1-T670I (expressing C-KIT-T670I mutant gene) cell line was constructed by our laboratory as follows: designing sgRNA that targeted a region around T670 of the KIT gene with CRISPR Design Tool (website: crispr.mit.edu, Zhang Feng Lab), cloning it into pSpCas9(BB)-2A-Puro vector; co-transfecting cells with the resultant vector and a single-stranded oligonucleotide having T670I site mutation that is near to T670, subjecting the resultant to antibiotics screening, followed by dilution, and monocellular culture in a 96-well plate; validating the site T670 of the cells by sequence detection via Sanger sequencing.” left out

Experiment [3] deals with TEL-KIT/T670E-BaF3. In words: Proliferation of TEL-KIT/T670E-BaF3 cells (CCK-8). Particulars: Mus musculus, read-out: GI50 TEL-KIT/T670E-BaF3. Type of experiment: cell-based.
From the text: as §1, with “The GIST-T1-T670I (expressing C-KIT-T670I mutant gene) cell line was constructed by our laboratory as follows: designing sgRNA that targeted a region around T670 of the KIT gene with CRISPR Design Tool (website: crispr.mit.edu, Zhang Feng Lab), cloning it into pSpCas9(BB)-2A-Puro vector; co-transfecting cells with the resultant vector and a single-stranded oligonucleotide having T670I site mutation that is near to T670, subjecting the resultant to antibiotics screening, followed by dilution, and monocellular culture in a 96-well plate; validating the site T670 of the cells by sequence detection via Sanger sequencing.” left out

For experiment [4], the system named is TEL-KIT/T670I/V559D-BaF3. The experiment can be described thus: Proliferation of TEL-KIT/T670I/V559D-BaF3 cells (CCK-8). Particulars: Mus musculus, read-out: GI50 TEL-KIT/T670I/V559D-BaF3. Type of experiment: cell-based.
From the text: as §1, with “The GIST-T1-T670I (expressing C-KIT-T670I mutant gene) cell line was constructed by our laboratory as follows: designing sgRNA that targeted a region around T670 of the KIT gene with CRISPR Design Tool (website: crispr.mit.edu, Zhang Feng Lab), cloning it into pSpCas9(BB)-2A-Puro vector; co-transfecting cells with the resultant vector and a single-stranded oligonucleotide having T670I site mutation that is near to T670, subjecting the resultant to antibiotics screening, followed by dilution, and monocellular culture in a 96-well plate; validating the site T670 of the cells by sequence detection via Sanger sequencing.” left out

Experiment [5] relates to TEL-KIT/D820Y-BaF3. The experiment can be described thus: Proliferation of TEL-KIT/D820Y-BaF3 cells (CCK-8). Type of experiment: cell-based. Particulars: Mus musculus, read-out: GI50 TEL-KIT/D820Y-BaF3.
From the text: as §1, with “The GIST-T1-T670I (expressing C-KIT-T670I mutant gene) cell line was constructed by our laboratory as follows: designing sgRNA that targeted a region around T670 of the KIT gene with CRISPR Design Tool (website: crispr.mit.edu, Zhang Feng Lab), cloning it into pSpCas9(BB)-2A-Puro vector; co-transfecting cells with the resultant vector and a single-stranded oligonucleotide having T670I site mutation that is near to T670, subjecting the resultant to antibiotics screening, followed by dilution, and monocellular culture in a 96-well plate; validating the site T670 of the cells by sequence detection via Sanger sequencing.” left out

The subject of experiment [6] is TEL-KIT/N822K-BaF3. In words: Proliferation of TEL-KIT/N822K-BaF3 cells (CCK-8). Type of experiment: cell-based. As to conditions: Mus musculus, read-out: GI50 TEL-KIT/N822K-BaF3.
From the text: as §1, with “The GIST-T1-T670I (expressing C-KIT-T670I mutant gene) cell line was constructed by our laboratory as follows: designing sgRNA that targeted a region around T670 of the KIT gene with CRISPR Design Tool (website: crispr.mit.edu, Zhang Feng Lab), cloning it into pSpCas9(BB)-2A-Puro vector; co-transfecting cells with the resultant vector and a single-stranded oligonucleotide having T670I site mutation that is near to T670, subjecting the resultant to antibiotics screening, followed by dilution, and monocellular culture in a 96-well plate; validating the site T670 of the cells by sequence detection via Sanger sequencing.” left out

Experiment [7] deals with TEL-KIT/A829P-BaF3. In words: Proliferation of TEL-KIT/A829P-BaF3 cells (CCK-8). Type of experiment: cell-based. As to conditions: Mus musculus, read-out: GI50 TEL-KIT/A829P-BaF3.
From the text: as §1, with “The GIST-T1-T670I (expressing C-KIT-T670I mutant gene) cell line was constructed by our laboratory as follows: designing sgRNA that targeted a region around T670 of the KIT gene with CRISPR Design Tool (website: crispr.mit.edu, Zhang Feng Lab), cloning it into pSpCas9(BB)-2A-Puro vector; co-transfecting cells with the resultant vector and a single-stranded oligonucleotide having T670I site mutation that is near to T670, subjecting the resultant to antibiotics screening, followed by dilution, and monocellular culture in a 96-well plate; validating the site T670 of the cells by sequence detection via Sanger sequencing.” left out

In experiment [8] the test system is GIST-T1/T670I. In words: Proliferation of GIST-T1/T670I cells (CCK-8). Type of experiment: cell-based. As to conditions: Homo sapiens, read-out: GI50 GIST-T1/T670I.
From the text: Compounds as provided herein were further evaluated for their inhibitory effects on proliferation of cancer cells by testing their effects on growth of cancer cells. In this example the following cells were used: primary mouse B cells BaF3 (purchased from ATCC), GIST-T1 cells of the human gastrointestinal stromal tumor cell line (expressing wild-type KIT gene) (purchased from Cosmo Bio Co., Ltd. (Japan)). The present lab further constructed and used the following: mouse Tel-Kit-BaF3 (stably expressing KIT wild-type kinase), mouse Tel-Kit/T670I-BaF3 (stably expressing KIT T670I mutant kinase), mouse Tel-Kit/V559A-BaF3 (stably expressing KIT V559A mutant kinase), mouse Tel-Kit/V559D-BaF3 (stably expressing KIT V559D mutant kinase), mouse Tel-Kit/V559G-BaF3 (stably expressing KIT V559G mutant kinase), mouse Tel-Kit/V560D-BaF3 (stably expressing KIT V560D mutant kinase), mouse Tel-Kit/L576P-BaF3 (stably expressing KIT L576P mutant kinase), mouse Tel-Kit/V654A-BaF3 (stably expressing KIT V654A mutant kinase), mouse Tel-Kit/V654A/V559D-BaF3 (stably expressing KIT V654A V559D mutant kinase), mouse Tel-Kit/T670E-BaF3 (stably expressing KIT T670E mutant kinase), mouse Tel-Kit/T670I/V559D-BaF3 (stably expressing KIT T670I V559D mutant kinase), mouse Tel-Kit/S709F-BaF3 (stably expressing KIT S709F mutant kinase), mouse Tel-Kit/D816E-BaF3 (stably expressing KIT D816E mutant kinase), mouse Tel-Kit/D816H-BaF3 (stably expressing KIT D816H mutant kinase), mouse Tel-Kit/D820E-BaF3 (stably expressing KIT D820E mutant kinase), mouse Tel-Kit/D820G-BaF3 (stably expressing KIT D820G mutant kinase), mouse Tel-Kit/D820Y-BaF3 (stably expressing KIT D820Y mutant kinase), mouse Tel-Kit/N822K-BaF3 (stably expressing KIT N822K mutant kinase), mouse Tel-Kit/Y823D-BaF3 (stably expressing KIT Y823D mutant kinase), mouse Tel-Kit/A829P-BaF3 (stably expressing KIT A829P mutant kinase), GIST-T1-T670I cells of the human gastrointestinal stromal tumor cell line (expressing KIT-T670I mutant gene). […]
as §2

Like-named read-outs stand apart in the source and are kept apart here.

Take `COc1cc2nccc(Oc3ccc(NC(=O)Cc4ccc(Cl)c(C(F)(F)F)c4)cc3)c2cc1OC` [Example 2, N-(4-((6,7-dimethoxyquinolin-4-yl)oxy)phenyl)-2-(4-chloro-3-(trifluoromethyl)phenyl)-acetamide]: the GI50 in experiment [1] (KIT wild-type, 72 hours, CCK-8) came to 0.001 µM; in experiment [2] (72 hours, CCK-8), 0.006 µM; in experiment [3] (72 hours, CCK-8) it was 0.071 µM; in experiment [4] (72 hours, CCK-8), 0.045 µM; in experiment [5] (72 hours, CCK-8) it was 0.003 µM; in experiment [6] (72 hours, CCK-8), 0.026 µM. The GI50 in experiment [7] (72 hours, CCK-8) stood at 0.022 µM; in experiment [8] (GISTT1, 72 hours, CCK-8) it was 0.011 µM.

For the compound `CCN(CC)CCNC(=O)c1c(C)[nH]c(/C=C2\C(=O)Nc3ccc(F)cc32)c1C` [Sunitinib, reference compound], the GI50 in experiment [2] (72 hours, CCK-8) is 0.001 µM; in experiment [3] (72 hours, CCK-8), 0.089 µM; in experiment [4] (72 hours, CCK-8) it was 0.012 µM; in experiment [5] (72 hours, CCK-8) it was 0.172 µM; in experiment [6] (72 hours, CCK-8), 0.384 µM; in experiment [7] (72 hours, CCK-8), 0.18 µM. The GI50 in experiment [8] (GISTT1, 72 hours, CCK-8) worked out at 0.004 µM.

On to `COc1cc2nccc(Oc3ccc(NC(=O)Cc4ccc(C)c(C(F)(F)F)c4)cc3)c2cc1OC` [Example 1, N-(4-((6,7-dimethoxyquinolin-4-yl)oxy)phenyl)-2-(4-methyl-3-(trifluoromethyl)phenyl)acetamide], for which the GI50 in experiment [1] (72 h) was 0.017 µM; in experiment [2] (72 h) it was 0.004 µM; in experiment [3] (72 h) it was 0.053 µM; in experiment [4] (72 h), 0.048 µM; in experiment [5] (72 h) it was 0.006 µM; in experiment [6] (72 h) it was 0.069 µM. Besides, the GI50 was 0.008 µM in experiment [7] (72 h) and 0.016 µM in experiment [8] (GISTT1, 72 h).
